# Results taken from PMC5870190, “A three-in-one-bullet for oesophageal cancer: replication fork collapse, spindle attachment failure and enhanced radiosensitivity generated by a ruthenium(II) metallo-intercalator” (Chemical Science, 2017).
# How the values were obtained:
# [1] = system: OE21, OE33 or FLO-1 cells; assay: Clonogenic survival assay with IR, three oesophageal cancer cell lines; format: cell-based, human
# Description: (§1) Clonogenic survival assay. OE21, OE33 or FLO1 cells were treated with 2 µM Ru1 for 24 h before irradiation with 0-8 Gy using a 137Cs γ-irradiator (IBL637, CIS Bio Int.; dose rate = 0.809 Gy min−1). 1 h after irradiation, cells were detached using Trypsin and re-seeded in 6 well plates at a density of 300 – 20,000 cells/well in triplicate in an incrementally greater number of cells with increasing IR dose to ensure adequate colony formation. Cells were incubated for 7–14 days after re-seeding to allow colony formation before being fixed with 10% methanol, 10% acetic acid and stained with 0.4% methylene blue. OE33 cells required an additional formaldehyde fixation (4% in PBS, 5 mins) step before the addition of methylene blue solution or colony detachment occurred. Colonies containing 50 cells or greater were counted using a Gelcount instrument and accompanying software (Oxford Optronix). Plating efficiencies were determined for each treatment condition and normalised to an untreated control to provide the surviving fraction (S. F.). S.F. versus radiation dose curves were plotted in GraphPad Prism and fit using a second order polynomial function (R2 values > 0.99). Dose modifying factors (DMF) at a SF=0.1 were calculated using the equation: Dose modifying factor (DMF) = IR dose to give S.F. 0.1/IR dose plus compound to give S.F.0.1. […]
# [2] = system: OE21 cells; assay: Clonogenic survival assay with IR, OE21; format: cell-based, human; details: Ru1 2 μM or Cis 500 nM for 24 h before IR
# Description: as §1
# [3] = system: OE21 cells; assay: Cell-cycle analysis by flow cytometry; format: cell-based, human; details: OE21, 20 μM, 24 h
# Description: phototoxic contribution to bio-activity. Doxorubicin (Sigma) was prepared in doubly-distilled water (10 mg/mL, 17.4 mM).
# [Ru(phen)2(dppz)]2+ (2 mM) was prepared in doubly-distilled water.
# Sub-cellular fractionation. OE21 or OE33 cells were treated in 12 well plates, washed with cold PBS (2x2 mls) and nuclear and cytosol fractions obtained using the Nuclei EZ Lysis kit (Sigma). Briefly, cells were washed with acidified PBS (pH 2.5) to remove the membrane-bound fraction and 0.4 ml EZ lysis buffer was added. Cells were detached by scraping, collected into eppendorfs, vortexed briefly and left for 5 minutes on ice. Samples were centrifuged (500g, 5 mins) and the supernatant (cytosol fraction) aspirated. The pellet (nuclear fraction) was re-suspended in 200 µl RIPA buffer. […] Ruthenium content was determined by ICP-MS analysis as described in a recent […]
# DNA fibre assay. […] CldU- and IdU-labelled tracts were visualised using a Leica DMRB microscope with a DFC360FX camera and tract length measured by ImageJ software. […]
# Western blotting. […] Protein content was determined by BCA assay. […]
# AnnexinV staining. […] This was incubated for 15 mins at room temperature, 400 µl binding buffer added and analysed by flow cytometry (FL1 and FL3 channels for FITC and PI respectively). […]
# [4] = system: MCF7 cells; assay: Micronuclei formation, MCF7; format: cell-based; details: MCF7, 40 μM Ru1, 24 h incubation
# Description: Microscopy and immunofluorescence. Cells were seeded on ibidi 35 mm µ-dishes (Thistle Scientific), allowed to adhere for 24 h and treated as stated in the main text. Cell media was removed, cells washed with PBS and fixed with formaldehyde (4%, 10 mins). Cells were permeablised with Triton (0.5% in PBS, 5 mins) and washed with PBS. Samples were blocked with BSA (3% in PBS-T) for 1 h before incubation with primary antibody (either anti-α-tubulin or anti-γ H2AX, 1/500 dilution) in BSA (3% in PBS-T) for 1 h. Samples were washed 3x in PBS-T and incubated with Alexa Fluor-conjugated secondary antibodies (3% in PBS-T, 1 h, 1/250 dilution). After further washing (3x5 min PBS-T) samples were co-stained with DAPI (5 ng/ml, 2 min), fresh PBS added and visualised by confocal microscopy. Samples were visualised using a Zeiss LSM 780 or LSM 710 inverted confocal microscope and EC Plan-Neofluar 40x/1.30 Oil objectives. […]
# For the determination of mutation induction, from the untreated and each treated condition, 2x10^5 cells were plated in 10 x 100 mm dishes in selective media (regular media
substance,measurement,setting,value
[Ru(phen)2(tpphz)]^2+ [Ru1],"surviving fraction (S.F.), single-agent","[1]; 2 μM, 24 h, no IR, all three cell lines",> 0.87
same,dose modification factor (DMF) at surviving fraction of 0.1,"[1]; Ru1 2 μM or sub-cytotoxic cisplatin (500 nM OE21 and OE33, 300 nM FLO-1), 24 h before IR, range over three cell lines",1.19–1.31
same,S.F.,"[2]; OE21, IR 0 Gy",1.062
same,S.F.,"[2]; OE21, IR 2 Gy",0.801
same,S.F.,"[2]; OE21, IR 4 Gy",0.410
same,S.F.,"[2]; OE21, IR 6 Gy",0.152
same,S.F.,"[2]; OE21, IR 8 Gy",0.062
same,increase in G2/M phase cells compared to control,[3],two-fold
same,"Cells with micronuclei, Percentage",[4],6.2%
